Each structure is given as a SMILES string.

Data set [1] deals with chewing stereotypes induced by apomorphine. Put plainly: antagonism to chewing stereotypes induced by apomorphine in rats, method of Janssen. It counts as in vivo. The settings on record: Table 4, apomorphine 1.25 mg/kg, s.c., at 200. As to the method: The neurological activity of the compounds of the invention was compared to the activity of prior art compounds in U.S. Pat. No. 4,172,143 and with a standard in this field, Sulpiride, N-[(1-ethylpyrrolidinyl-2)methyl]-2-methoxy-5 sulphamoyl benzamide. The compounds were tested for antagonism to chewing stereotypes induced by apomorphine (1.25 mg/kg in rats, according to the method of Janssen in Arzn. Forsch. 1960-10, 1003-5, under subcutaneous administration and the results were as follows: […]

The test system of data set [2] is stereotypes induced by apomorphine. In words: potentiation of stereotypes induced by apomorphine in rats. The settings on record: Table 7, apomorphine 0.25 mg/kg, intraperitoneal. It counts as in vivo. On the procedure:
The compound of Example 2 was tested against sulpiride for potentiation of stereotypes induced by apomorphine (0.25 mg/kg) in rats under intraperitoneal administration with the following results: […]

Data set [3] concerns chewing stereotypes induced by dexamphetamine. Put plainly: antagonism to chewing stereotypes induced by dexamphetamine in rats, Janssen's method. Type of data set: in vivo. The settings on record: Table 5, dexamphetamine 10 mg/kg, s.c., at 100 mg/kg. On the procedure: The compounds were also tested for antagonism to chewing stereotypes induced by dexamphetamine (10 mg/kg) in rats, by Janssen's method in Arzn. Forsch. 1961, 11, 932-938 under subcutaneous administration with the following results: […]

Data set [4] concerns biting sterotypes induced by apomorphine. In words: potentiation of biting sterotypes induced by apomorphine in mice, Pedeson's method. The settings on record: Table 6, apomorphine 10 mg/kg, interperitoneal. Type of data set: in vivo. On the procedure:
The compounds were also tested for potentiation of biting sterotypes induced by apomorphine (10 (mg/kg) in mice, under interperitoneal administration in accordance with Pedeson's method in Brit J. Pharmacol. 1968, 34 (1), 219-220 with the following results: […]

Data set [5] concerns anti-emetic power relative to apomorphine in dogs. Put plainly: anti-emetic ED50 under oral administration (procedure of Example 29). Type of data set: in vivo. The note with it: Canis lupus familiaris, Table 2. As to the method:
(§1) The pharmacodynamic tests on the compounds of this invention, and particularly a study of their anti-emetic power have shown strong activity on the nervous system as apomorphine antagonists. […] In accordance with the above-mentioned procedures, the compounds of the invention were administered subcutaneously 30 minutes before the administration of apomorphine, which was administered subcutaneously in a dose of 100 ug/kg.
Compounds SLC-036, 77205 and 77149 are disclosed in U.S. Pat. No. 4,172,143 for comparison purposes, as Examples 10, 33 and 37 therein. The results for those compounds are reported in Table IX of the '143 Patent and are believed to represent results from oral administration.
Pharmacological tests were carried out under oral administration to determine anti-emetic ED50 in accordance with the procedure of Example 29 with the following results: […]

Data set [6] can be described thus: acute toxicity in the mouse. The note with it: in vivo. The text has this:
The acute toxicity of the compounds of the invention has been studied in the mouse. The LD50 's are set out in the following Table 3. […] This characteristic is highly desirable because the possibility of toxic effects due to the administration of therapeutic doses is thereby minimized.

The test system of data set [7] is anti-emetic power relative to apomorphine in dogs. In words: anti-emetic power relative to apomorphine in dogs by the method of Chen and Ensor (subcutaneous administration). The note with it: Canis lupus familiaris, sc, Table 1, s.c. 30 minutes before apomorphine 100 ug/kg s.c. Type of data set: in vivo. On the procedure: as §1
The nature of data set [8]: solubility in water. It counts as physicochemical. The note with it: crystals, base.

Take `CCN1CCCC1CNC(=O)c1cc(S(N)(=O)=O)ccc1OC` (stereo not drawn) [Sulpiride, N-[(1-ethylpyrrolidinyl-2)methyl]-2-methoxy-5 sulphamoyl benzamide, reference compound]: the “% antagonism to chewing stereotypes induced by apomorphine” value in data set [1] is on record as 0%. For the same compound, the “% potentiation of stereotypes induced by apomorphine” value in data set [2] (at 8 mg/kg) is 30%. The “% antagonism to chewing stereotypes induced by dexamphetamine” value in data set [3] was 0%. In data set [4] (at 4 mg/kg), the “% potentiation of biting sterotypes induced by apomorphine” value is given as 12%.

Broadly, the ED50 is the dose at which the effect has come halfway, by size or by number of responders. By LD50 is commonly meant the dose expected to kill half of the subjects tested. A low value points to greater toxicity. On to `CCS(=O)(=O)c1cc(C(=O)NCC2CCCN2CC2CC2)c(OC)cc1N` (stereo not drawn) [Example 2, N-(1-cyclopropyl-methyl-2-pyrrolidinyl-methyl)-2-methoxy-4-amino-5-ethylsulphonyl-benzamide], for which the ED50 was found to be 0.0009 mg/kg in data set [5]; 2.4 mg/kg in data set [2] (Rattus norvegicus, ip); 0.0004 mg/kg in data set [7]; 1.6 mg/kg in data set [4] (Mus musculus, ip). Besides, the LD50 in data set [6] (I.V. (intravenous)) lay within 52.5 to 54.6 mg/kg; in data set [6] (P.O. (oral)) it was 1260 to 1320 mg/kg; in data set [6] (ip, I.P. (intraperitoneal)) it was 204 to 220 mg/kg; in data set [6] (sc, S.C. (subcutaneous)) it was 380 to 396 mg/kg.

As to `COc1cc(S(N)(=O)=O)cc(C(=O)NCC2CCCN2CC2CC2)c1OC` (stereo not drawn) [Example 4, N-(1-cyclopropylmethyl-2-pyrrolidinylmethyl)-2,3-dimethoxy-5-sulphamoyl benzamide], the LD50 was 60 to 64.5 mg/kg in data set [6] (I.V. (intravenous)); 2280 mg/kg in data set [6] (P.O. (oral)); 372 to 403 mg/kg in data set [6] (ip, I.P. (intraperitoneal)); 930 mg/kg in data set [6] (sc, S.C. (subcutaneous)). Moreover, the solubility in water result in data set [8] is “insoluble”. The compound further yielded an ED50 in data set [7] of 0.0022 mg/kg.

For the origin of these results see patent US4816471A, “Substituted heterocyclic benzamides, methods of preparing them and their application as anti-emetics” (Societe d'Etudes Scientifiques et Industrielles de …, priority 1978, dated 1989).
